Test: xn = mol fraction of the nth substance listed
Conditions: 101 kPa, Liquid; for speed of sound: Frequency=2 MHz

CCCCn1cc[n+](C)c1.[Cl-] [1-butyl-3-methylimidazolium chloride] + C[S+](C)[O-]
Conditions | mass density [kg/m3] | speed of sound [m/s] | viscosity [mPa·s]
298.15 K, x1 = 0.0111 | 1096.4 | 1514 | 2.13
298.15 K, x1 = 0.0341 | 1096.96 | 1544 | 2.62
298.15 K, x1 = 0.0713 | 1097.81 | 1582 | 3.43
298.15 K, x1 = 0.1122 | 1098.51 | 1618 | 4.35
298.15 K, x1 = 0.1731 | 1098.36 | 1658 | 5.83
298.15 K, x1 = 0.2433 | 1097.41 | 1694 | 7.62
298.15 K, x1 = 0.3032 | 1095.8 | 1718 | 9.17
298.15 K, x1 = 0.3705 | 1093.86 | 1742 | 10.99
298.15 K, x1 = 0.4746 | 1090.52 | 1778 | 13.86
298.15 K, x1 = 0.5997 | 1086.4 | 1810 | 17.36
298.15 K, x1 = 0.7115 | 1083.11 | 1834 | 20.5
298.15 K, x1 = 0.843 | 1079.14 | 1848 | 24.28
298.15 K, x1 = 0.9445 | 1076.25 | 1856 | 27.39
298.15 K, x1 = 1 | 1074.43 | 1868 | 29.21
303.15 K, x1 = 0.0111 | 1093.12 | 1490 | 1.93
303.15 K, x1 = 0.0341 | 1094.05 | 1522 | 2.35
303.15 K, x1 = 0.0713 | 1094.88 | 1562 | 3.04
303.15 K, x1 = 0.1122 | 1095.16 | 1598 | 3.86
303.15 K, x1 = 0.1731 | 1095.51 | 1638 | 5.12
303.15 K, x1 = 0.2433 | 1094.39 | 1672 | 6.66
303.15 K, x1 = 0.3032 | 1092.84 | 1698 | 8.04
303.15 K, x1 = 0.3705 | 1090.91 | 1718 | 9.63
303.15 K, x1 = 0.4746 | 1087.56 | 1752 | 12.14
303.15 K, x1 = 0.5997 | 1083.53 | 1792 | 15.22
303.15 K, x1 = 0.7115 | 1080.09 | 1820 | 17.99
303.15 K, x1 = 0.843 | 1076.19 | 1844 | 21.34
303.15 K, x1 = 0.9445 | 1073.27 | 1852 | 24.12
303.15 K, x1 = 1 | 1071.38 | 1860 | 25.72
308.15 K, x1 = 0.0111 | 1087.12 | 1478 | 1.77
308.15 K, x1 = 0.0341 | 1088.6 | 1510 | 2.12
308.15 K, x1 = 0.0713 | 1089.65 | 1550 | 2.68
308.15 K, x1 = 0.1122 | 1090.4 | 1586 | 3.31
308.15 K, x1 = 0.1731 | 1090.8 | 1630 | 4.34
308.15 K, x1 = 0.2433 | 1089.91 | 1664 | 5.53
308.15 K, x1 = 0.3032 | 1088.61 | 1690 | 6.63
308.15 K, x1 = 0.3705 | 1086.93 | 1712 | 7.91
308.15 K, x1 = 0.4746 | 1083.87 | 1748 | 9.96
308.15 K, x1 = 0.5997 | 1080.1 | 1786 | 12.5
308.15 K, x1 = 0.7115 | 1076.93 | 1812 | 14.79
308.15 K, x1 = 0.843 | 1072.98 | 1832 | 17.57
308.15 K, x1 = 0.9445 | 1070.09 | 1840 | 19.84
308.15 K, x1 = 1 | 1068.32 | 1848 | 21.21
318.15 K, x1 = 0.0111 | 1077.1 | 1450 | 1.51
318.15 K, x1 = 0.0341 | 1078.9 | 1484 | 1.82
318.15 K, x1 = 0.0713 | 1080.54 | 1520 | 2.3
318.15 K, x1 = 0.1122 | 1081.62 | 1550 | 2.87
318.15 K, x1 = 0.1731 | 1082.42 | 1592 | 3.76
318.15 K, x1 = 0.2433 | 1081.92 | 1634 | 4.81
318.15 K, x1 = 0.3032 | 1080.89 | 1662 | 5.78
318.15 K, x1 = 0.3705 | 1079.44 | 1688 | 6.93
318.15 K, x1 = 0.4746 | 1076.76 | 1720 | 8.79
318.15 K, x1 = 0.5997 | 1073.27 | 1758 | 11.1
318.15 K, x1 = 0.7115 | 1070.22 | 1788 | 13.18
318.15 K, x1 = 0.843 | 1066.58 | 1808 | 15.7
318.15 K, x1 = 0.9445 | 1063.76 | 1814 | 17.76
318.15 K, x1 = 1 | 1062.14 | 1820 | 18.97
328.15 K, x1 = 0.0111 | 1067.04 | 1422 | 1.17
328.15 K, x1 = 0.0341 | 1069.24 | 1454 | 1.44
328.15 K, x1 = 0.0713 | 1071.41 | 1490 | 1.89
328.15 K, x1 = 0.1122 | 1072.82 | 1520 | 2.37
328.15 K, x1 = 0.1731 | 1074.01 | 1564 | 3.14
328.15 K, x1 = 0.2433 | 1073.91 | 1604 | 4.06
328.15 K, x1 = 0.3032 | 1073.16 | 1630 | 4.89
328.15 K, x1 = 0.3705 | 1071.9 | 1658 | 5.92
328.15 K, x1 = 0.4746 | 1069.49 | 1694 | 7.6
328.15 K, x1 = 0.5997 | 1066.39 | 1730 | 9.68
328.15 K, x1 = 0.7115 | 1063.48 | 1760 | 11.56
328.15 K, x1 = 0.843 | 1060.06 | 1788 | 13.82
328.15 K, x1 = 0.9445 | 1057.44 | 1796 | 15.65
328.15 K, x1 = 1 | 1055.89 | 1804 | 16.74

Reference: the NIST ThermoML archive (doi:10.1016/j.fluid.2011.02.010)
